Assay results: ChEMBL document CHEMBL1201862, “PubChem BioAssay data set” (2004)
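Step 1: Grow cells in 96-well plates. Step 2: Expose to compound for 48 hours at 5 concentrations. Step 3: Interpolate endpoints linearly; if unreached, use highest concentration. GI50: concentration for 50% inhibition of growth.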 The source made the active and inactive calls. Rule as the data show it: active = GI50 up to about 1.1 µM and inactive = higher. Positions of bridges follow the written chain, without caps; N, C: chain ends. Square brackets hold non-standard residues; d marks the D form. Residues, ends and D or L forms follow the SMILES beside them. Peptide text beside a SMILES is read from it. * marks the point of attachment. ξ: configuration not given here. NMeY = CN[C@@H](Cc1ccc(O)cc1)C(=O)O; Cbz = O=C(OCc1ccccc1)*; ξA = CC(N)C(=O)O

How the values were obtained:
Assay in all cases: NCI tumour cell line growth inhibition, 48 h
786-0 = system: 786-0
BT-549 = system: BT-549
CAKI-1 = system: CAKI-1
CCRF-CEM = system: CCRF-CEM
DU-145 = system: DU-145
EKVX = system: EKVX
HCC 2998 = system: HCC 2998
HL-60 = system: HL-60
HOP-62 = system: HOP-62
HT-29 = system: HT-29
MCF7 = system: MCF7
NCI-H460 = system: NCI-H460
OVCAR-3 = system: OVCAR-3
RPMI-8226 = system: RPMI-8226
SF-268 = system: SF-268
SF-295 = system: SF-295
SF-539 = system: SF-539
SK-MEL-28 = system: SK-MEL-28
SK-MEL-5 = system: SK-MEL-5
SK-OV-3 = system: SK-OV-3

Measured: GI50

C=C1C(=O)OC2CC(C)C(C(CC(C)=O)OC(C)=O)=CCC12 (stereo not given)
inactive: 786-0 2.74 µM | BT-549 6.19 µM | CAKI-1 3.16 µM | CCRF-CEM 2.61 µM | DU-145 16.5 µM | EKVX 11.8 µM | HCC 2998 10.5 µM | HL-60 3.25 µM | HOP-62 21 µM | HT-29 8.41 µM | MCF7 4.74 µM | NCI-H460 17 µM | OVCAR-3 7.06 µM | RPMI-8226 3.87 µM | SF-268 22.5 µM | SF-295 23.8 µM | SF-539 15.3 µM | SK-MEL-28 8.24 µM | SK-MEL-5 14.2 µM | SK-OV-3 37.9 µM

COc1ccc(N2C(=O)C3c4[nH]c5ccc(Br)cc5c4C4CCC(C(C)(C)C)CC4C3C2=O)cc1 (stereo not given)
inactive: 786-0 > 100 µM | BT-549 > 100 µM | CAKI-1 > 100 µM | CCRF-CEM > 100 µM | DU-145 > 100 µM | EKVX > 100 µM | HCC 2998 > 100 µM | HL-60 > 100 µM | HOP-62 > 100 µM | HT-29 > 100 µM | MCF7 > 100 µM | NCI-H460 > 100 µM | OVCAR-3 > 100 µM | RPMI-8226 > 100 µM | SF-268 > 100 µM | SF-295 > 100 µM | SF-539 > 100 µM | SK-MEL-28 > 100 µM | SK-MEL-5 > 100 µM | SK-OV-3 > 100 µM

COc1ccc(C[C@@H](C(=O)N[C@@H](C)C(N)=O)N(C)C(=O)[C@@H]2CCCN2C(=O)[C@H](CC(C)C)NC(=O)C(C)NC(=O)OCc2ccccc2)cc1 (stereo not given in full) (Cbz-[ξA]LP[NMeY](Me)A-NH2)
inactive: 786-0 > 100 µM | BT-549 > 100 µM | CAKI-1 > 100 µM | CCRF-CEM > 100 µM | DU-145 > 100 µM | EKVX > 100 µM | HCC 2998 > 100 µM | HL-60 > 100 µM | HOP-62 > 100 µM | HT-29 > 100 µM | MCF7 > 100 µM | NCI-H460 > 100 µM | OVCAR-3 > 100 µM | RPMI-8226 > 100 µM | SF-268 > 100 µM | SF-295 > 100 µM | SF-539 > 100 µM | SK-MEL-28 > 100 µM | SK-MEL-5 76.2 µM | SK-OV-3 > 100 µM

COC(=O)C1CCC(=O)NCCCCC(NC(=O)C(N)CC(=O)O)C(=O)N1 (stereo not drawn) (H-Asp-Lys-Glu-OMe; lactam 2-3; configuration not given here)
inactive: 786-0 71.9 µM | BT-549 > 100 µM | CAKI-1 82 µM | CCRF-CEM 32.4 µM | DU-145 > 100 µM | EKVX > 100 µM | HCC 2998 > 100 µM | HL-60 29.4 µM | HOP-62 > 100 µM | HT-29 > 100 µM | MCF7 62.7 µM | NCI-H460 9.68 µM | OVCAR-3 > 100 µM | RPMI-8226 > 100 µM | SF-268 > 100 µM | SF-295 > 100 µM | SF-539 > 100 µM | SK-MEL-28 > 100 µM | SK-MEL-5 > 100 µM | SK-OV-3 > 100 µM

CCC(C)C(NC(=O)C(NC(=O)C(CC(N)=O)NC(=O)CN)C(C)O)C(=O)NC(C(=O)NC(C)C(=O)NC(C(=O)NC(CCC(=O)O)C(=O)NC(CC(C)C)C(=O)NC(CC(=O)O)C(=O)NC(C(=O)NC(Cc1ccc(O)cc1)C(=O)N1CCCC1C(=O)O)C(C)O)C(C)C)C(C)C (stereo not given) (H-GNTIVAVELDTYP-OH; configuration not given here)
inactive: 786-0 > 50 µM | BT-549 > 50 µM | CAKI-1 > 50 µM | CCRF-CEM > 50 µM | DU-145 > 50 µM | EKVX > 50 µM | HCC 2998 > 50 µM | HL-60 > 50 µM | HOP-62 > 50 µM | HT-29 > 50 µM | MCF7 > 50 µM | NCI-H460 > 50 µM | OVCAR-3 > 50 µM | RPMI-8226 > 50 µM | SF-268 > 50 µM | SF-295 > 50 µM | SF-539 > 50 µM | SK-MEL-28 > 50 µM | SK-MEL-5 > 50 µM | SK-OV-3 > 50 µM

CCC(CO)Nc1nc(NCc2ccccc2)c2ncn(C(C)C)c2n1 (stereo not drawn) [(RS)-ROSCOVITINE]
inactive: 786-0 20.2 µM | BT-549 18.5 µM | CAKI-1 17.4 µM | CCRF-CEM 22.6 µM | DU-145 35.8 µM | EKVX 18.2 µM | HCC 2998 15.3 µM | HL-60 17.5 µM | HOP-62 11.9 µM | HT-29 18.8 µM | MCF7 15.7 µM | NCI-H460 16.2 µM | OVCAR-3 9.23 µM | RPMI-8226 22.6 µM | SF-268 13.7 µM | SF-295 19.3 µM | SF-539 12.6 µM | SK-MEL-28 12.8 µM | SK-MEL-5 15.8 µM | SK-OV-3 57.8 µM
